The values below come from patent US20230075584A1, “INTRANASAL ADMINISTRATION OF GLUTAMATE CARBOXYPEPTIDASE (GCP-II) INHIBITORS” (The Johns Hopkins University, priority 2015, published 2023).

Values joined by “and” are separate entries in the source; they are usually repeats but may differ in a detail not shown here. Equal entries are not always repeated. “Also recorded” adds a separate entry of the source. Where two headings read alike, the source gives them in different places.

A short description of data set [1]: Pharmacokinetics of i.p. versus i.n. administered 2-PMPA in rat plasma and brain tissues. Type of data set: in vivo. Conditions: 30 mg/kg i.n.; for Kp: male, Wistar, other: intranasal, 30 mg/kg.
The next data set addresses T1, GCP-II (Rattus norvegicus, UniProt P70627).
T1 construct: from tissue; host or cells: rat brain (olfactory bulb, cortex, cerebellum), sonicated in Tris buffer, supernatant
Briefly: Ex vivo GCP-II enzymatic (NAAG hydrolyzing) activity in rodent brain tissue after i.n. administration. How it is done: Rodent ex vivo GCP-II enzymatic activity: One half of the brain tissues collected following i.n. administration (lh post dose) was used to determine GCP-II NAAG hydrolyzing activity. In brief, tissues were weighed and immersed in 0.5 mL of ice-cold 50 mM Tris Buffer (pH 7.7 at RT). Each tissue was sonicated for 30-60 seconds using an ultrasonic cell disrupter. After a 2 minute spin at 13,000 g, supernatants were analyzed for protein content and NAAG-hydrolyzing activity measurements were performed as previously described (Rojas et al., 2012; Robinson et al., 1987).

A short description of data set [2]: Pharmacokinetics of i.p. versus i.n. administered 2-PMPA in rat plasma and brain tissues. The format is in vivo. As for the experimental part:
For i.p. studies, 2-PMPA was administered as a single i.p. dose. All dosing solutions were prepared on the day of the experiment in 50 mM HEPES buffered saline, and pH adjusted to 7.4 before injection. At various time points following drug administration (0.16 h, 0.5 h, 1 h, 3 h, 5 h) post dose, animals (n=3 per time point, except 3 h n=2 animals) were euthanized with CO2, and blood samples were collected in heparinized microtubes by cardiac puncture and tissues (olfactory bulb, frontal cortex, and cerebellum) were dissected and immediately flash frozen (−80° C.). Plasma was prepared by centrifugation immediately after collection of blood samples. All samples were stored in −80° C. until bioanalysis.
The samples were vortexed and centrifuged.
The maximum plasma concentration (Cmax) and time to Cmax (Tmax) were the observed values. The area under the plasma concentration time curve (AUC) value was calculated to the last quantifiable sample (AUClast) by use of the log linear trapezoidal rule. The brain-to-plasma partition coefficients were calculated as a ratio of their AUCs (AUC0-t, brain/AUC0-t, plasma). The elimination half-life (t1/2) was determined by dividing 0.693 by λz.

A short description of data set [3]: Plasma and CSF exposure after i.n. administration in non-human primate. Conditions: cynomolgus monkey, 30 min post dose.
Description: A male cynomolgus monkey (approximately 3.5 kg, non-drug naive) was housed in a stainless steel cage (size 30″ (76.2 cm) wide×31″ (78.74 cm) deep×31.5″ (80.01 cm) high) maintaining temperature of 64-84° F. (17.8° C.-28.9° C.), humidity of 30-70% with alternating 12-hour light/dark cycle as per the USDA Animal Welfare Act (9 CFR, Parts 1, 2, and 3).
The monkey was sedated with 45 mg of ketamine and 0.25 mg of midazolam given as an intramuscular injection prior to test article administration. Sedation was maintained through blood and cerebrospinal fluid (CSF) sample collections with ketamine/midazolam at a starting rate of 20 mg/kg/hr ketamine and 0.4 mg/kg/hr midazolam. […] The device was actuated for a period of 2 min in one nostril (depositing 100 μL). The nose piece was cleaned with a mist of air and then the same procedure was performed in the second nostril (100 μL). Total dose delivered was 100 mg. CSF sample (target of 50 μL) was obtained by an indwelling cannula placed in the intrathecal space at the cisterna magna at 0.5 h post dose. Blood was collected via venipuncture of the femoral vein at 0.5 h post dose and plasma was obtained by low speed centrifugation at 1500×g for 10 minutes. The plasma was flash-frozen on dry ice after separation. Plasma and CSF samples were stored in a freezer set at −70° C., until bioanalysis.
Standard curves were generated in blank artificial CSF. Calibration curves were constructed in the range of 0.113-22.6 μg/mL. Samples were analyzed on Agilent QTOF mass spectrometer by LC/MS. Samples (20 μL) were injected and separated on an Agilent 1290 LC equipped with an Agilent Eclipse Plus C18 column (2.1×100 mm) packed with 1.8 micron stationary phase. The mobile phase consisted of 0.1% formic acid in water and 0.1% formic acid in acetonitrile with an isocratic elution at 2.5% organic. […] Calibration curves were generated with a correlation coefficient >0.99 in a similar manner as described above.
Data set [4] in a line: Brain concentrations 1 h after intranasal administration in rats (single time point). To be noted: rat, 30 mg/kg i.n., 1 hr post dose; for concentration at 1 h: male, Wistar, in vivo, 30 mg/kg. Type of data set: in vivo.
The conditions of data set [5]: non-human primates; halted development; cited from earlier work.
For data set [6] the following is noted: purified enantiomers, intranasal. As for the experimental part:
Rodent i.n. and i.p. dosing: Studies were conducted in male Wistar rats (6-8 weeks; weighing between 200 gm to 250 gm) obtained from Harlan® Laboratories (Indianapolis, Ind.) that were maintained in a controlled environment and allowed food and water ad libitum. Intranasal administrations were performed according to previously described methods with minor modifications. Briefly, rats were anesthetized with a 1-1.5 mL intraperitoneal (i.p.) dose of 10% chloral hydrate (approved under the protocol RA #13), and kept under anesthesia with additional chloral hydrate as needed throughout the entire experiment. To prevent drainage of nasally dosed solution, the nasal cavity was isolated from the respiratory and gastrointestinal tracts. An incision was made along the neck, and the trachea isolated and transected. The upper part was tied off with a 3-0 silk suture, and the lower part cannulated with PE240 tubing to aid air breathing. Rats were maintained lying on their back, and in this position, given 10 μL (375 mg/mL) of the experimental drug solution per nostril using a micro-syringe connected to 1.5 cm PE-10 tube. The total dose received was 30 mg/kg for each drug solution.
Briefly, prior to extraction, frozen samples were thawed on ice. For plasma samples, 50 μL of the calibration standard or sample were transferred into silanized vials. For brain tissues, the samples were weighed in a 1.7 mL silanized vials to which 4 times the volume of methanol (dilution 1:5) was added. The tissues were stored in −20° C. for 1 h and then homogenized. The calibration curves were developed using plasma and brain from untreated animals as a matrix. For plasma, sample preparation involved a single liquid extraction by addition of 300 μL of methanol as extraction solution with internal standard, followed by vortexing for 30 s and then centrifugation at 12000×g for 10 min. Supernatant was transferred and evaporated to dryness at 40° C. under a gentle stream of nitrogen. For brain tissue, homogenized samples were vortexed and centrifuged as above, and 100 μL supernatant was mixed with 100 μL of internal standard in methanol, and then evaporated to dryness at 40° C. under a gentle stream of nitrogen. […] For derivatization, the residue was reconstituted with 100 μL of n-butanol with 3N HCl and samples were vortexed. The samples were heated at 60° C. in a shaking water bath for 30 min. At the end of 30 min, the derivatized samples were dried under a gentle stream of nitrogen. […] The samples were vortexed and centrifuged. Supernatant (75 μL) was transferred to a 250 μL polypropylene autosampler vial sealed with a Teflon cap and a volume of 10 μL was injected onto the ultral l performance liquid chromatography (UPLC) instrument for quantitative analysis using a temperature-controlled autosampler operating at 10° C.
Chromatographic analysis was performed using an Accela™ ultra high-performance system consisting of an analytical pump, and an autosampler coupled with TSQ Vantage mass spectrometer (Thermo Fisher Scientific Inc., Waltham Mass.). […] The mobile phase was composed of 0.1% formic acid in acetonitrile and 0.1% formic acid in H2O with gradient elution. The total run time for each analyte was 5.0 min.

Data set [7] deals with glutamate carboxypeptidase II (GCP-II) (Homo sapiens, UniProt Q04609). To be noted: GCP-II inhibition, Table 1; read-out: Potency (IC50); cited from earlier work.
Chain of glutamate carboxypeptidase II (GCP-II) (Q04609 whole entry, species assumed): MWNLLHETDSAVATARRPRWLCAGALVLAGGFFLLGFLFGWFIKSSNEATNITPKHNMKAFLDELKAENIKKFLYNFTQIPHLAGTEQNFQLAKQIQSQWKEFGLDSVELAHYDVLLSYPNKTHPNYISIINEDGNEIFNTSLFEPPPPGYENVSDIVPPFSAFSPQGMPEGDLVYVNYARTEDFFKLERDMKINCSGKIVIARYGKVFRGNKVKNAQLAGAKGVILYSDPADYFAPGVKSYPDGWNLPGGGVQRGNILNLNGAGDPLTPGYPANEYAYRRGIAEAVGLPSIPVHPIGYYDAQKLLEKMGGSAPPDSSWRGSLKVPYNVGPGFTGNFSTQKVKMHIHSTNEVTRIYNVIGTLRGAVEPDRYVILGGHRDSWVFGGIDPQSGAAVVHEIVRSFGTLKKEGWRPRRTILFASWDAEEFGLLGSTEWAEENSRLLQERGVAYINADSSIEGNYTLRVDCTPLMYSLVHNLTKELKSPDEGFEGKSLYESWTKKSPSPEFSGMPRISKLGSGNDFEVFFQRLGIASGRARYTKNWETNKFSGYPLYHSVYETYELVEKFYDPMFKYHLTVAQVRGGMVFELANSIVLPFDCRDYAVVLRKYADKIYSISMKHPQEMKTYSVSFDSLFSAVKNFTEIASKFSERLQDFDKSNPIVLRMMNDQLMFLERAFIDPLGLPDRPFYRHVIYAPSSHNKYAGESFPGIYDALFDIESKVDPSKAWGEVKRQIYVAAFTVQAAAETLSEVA
Where [8] appears, read: ex vivo, 1 h after 30 mg/kg i.n., relative to untreated control rats.

T1 sequence (P70627 whole entry): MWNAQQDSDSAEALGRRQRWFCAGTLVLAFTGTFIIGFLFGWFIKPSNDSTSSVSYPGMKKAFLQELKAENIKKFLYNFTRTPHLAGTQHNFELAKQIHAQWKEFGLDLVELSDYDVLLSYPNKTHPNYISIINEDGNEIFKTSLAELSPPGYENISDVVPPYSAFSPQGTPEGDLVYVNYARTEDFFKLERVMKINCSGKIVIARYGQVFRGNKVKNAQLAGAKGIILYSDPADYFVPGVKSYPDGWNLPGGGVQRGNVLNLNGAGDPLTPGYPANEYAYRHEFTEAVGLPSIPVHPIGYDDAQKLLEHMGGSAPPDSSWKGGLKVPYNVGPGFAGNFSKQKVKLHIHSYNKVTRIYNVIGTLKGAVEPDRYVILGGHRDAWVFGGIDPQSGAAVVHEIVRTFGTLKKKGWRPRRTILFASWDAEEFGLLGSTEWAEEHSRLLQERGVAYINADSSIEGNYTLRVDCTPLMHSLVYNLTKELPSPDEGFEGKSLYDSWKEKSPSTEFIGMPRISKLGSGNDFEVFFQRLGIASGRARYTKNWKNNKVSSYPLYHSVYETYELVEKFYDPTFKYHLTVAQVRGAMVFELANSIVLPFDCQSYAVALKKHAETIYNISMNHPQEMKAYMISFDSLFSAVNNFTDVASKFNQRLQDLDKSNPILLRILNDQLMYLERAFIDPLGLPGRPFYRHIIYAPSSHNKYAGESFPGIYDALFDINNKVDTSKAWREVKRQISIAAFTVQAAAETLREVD

For the molecule `O=C(O)CCC(CP(=O)(O)O)C(=O)O` (racemic) [2-PMPA, 2-(phosphonomethyl)-pentanedioic acid], the “plasma AUC0-t” value in data set [1] stood at 52300 ng·h/mL. Besides, the Kp in data set [1] (cerebellum, read-out: brain tissue to plasma ratio based on AUCs, cerebellum) stood at 0.1. Further, in data set [1] (cortex, read-out: brain tissue to plasma ratio based on AUCs, cortex), the Kp stood at 0.71. Moreover, in data set [1] (olfactory bulb, read-out: brain tissue to plasma ratio based on AUCs, olfactory bulb), the Kp was determined as 1.49. Moreover, at GCP-II (setting [8]), the “inhibition of GCP-II activity in cerebellum” value is 70%±5%, the “inhibition of GCP-II activity in cortex” value was determined as 100% and the “inhibition of GCP-II activity in olfactory bulb” value came out at 100%. For the same molecule, on GCP-II (i.n. administration, summary statement), the “inhibition of brain GCP-II enzymatic activity ex-vivo” value is given as “complete inhibition”. The “share of 2-PMPA reaching the brain accounted from the plasma 2-PMPA” value in data set [2] (i.n. route, pooled plasma and brain data from i.p. and i.n.) is given as 2%. Further, in data set [2] (male, Wistar, rat, brain, intraperitoneal, 30 mg/kg, following systemic administration, read-out: brain-to-plasma ratio), the Kp was no more than 0.02. For the same molecule, the fold improvement in brain-to-plasma ratio, intranasal versus intraperitoneal in data set [2] (male, Wistar, rat, brain, other: intranasal, 30 mg/kg, intranasal versus other route, read-out: improvement in the brain-to-plasma ratio when administered through an intranasal route) was 100. Besides, the Kp in data set [2] (male, Wistar, rat, olfactory bulb, cortex and cerebellum, ip, 30 mg/kg, rat, 30 mg/kg i.p., olfactory bulb, cortex and cerebellum, read-out: brain tissue to plasma ratio based on AUCs (AUC0-t, brain/AUC0-t, plasma)) is less than 0.02. In addition, in data set [2] (rat, 30 mg/kg i.n.), the AUC0-t cerebellum was determined as 5.27 µg·h/g, the AUC0-t cortex is 37.7 µg·h/g, the AUC0-t olfactory bulb is 78.1 µg·h/g and the “plasma Cmax” value came to 24700 ng/mL. Also, in data set [2] (rat, 30 mg/kg i.p.), the AUC0-t cerebellum amounted to 0.80 µg·h/g, the AUC0-t cortex was determined as 0.84 µg·h/g, the AUC0-t olfactory bulb was determined as 1.15 µg·h/g and the AUC0-t plasma is 50300 ng·h/mL. For the same molecule, in data set [2] (rat, 30 mg/kg i.p.), the apparent clearance is on record as 9.71 mL/min/kg, the “apparent volume of distribution” value was 0.82 L/kg and the “peak plasma concentration (Cmax)” value turned out to be 49500 ng/mL. In data set [2] (rat, 30 mg/kg i.p., plasma), the “elimination t1/2” value amounted to 59.4 min. For the same molecule, in data set [3] (i.n.), the “CSF concentration versus the IC50” value was greater than 100 fold. The concentration at 0.5 h in data set [3] (male, CSF, other: intranasal, 100 mg, CSF concentration, 100 mg total i.n.) was 320 ng/mL and ~1.5 µM. In addition, in data set [4] (read-out: concentration in cerebellum), the concentration at 1 h came out at 2130 ng/g. Also, in data set [4] (read-out: concentration in cortex), the concentration at 1 h is 10300 ng/g. For the same molecule, the concentration at 1 h in data set [4] (read-out: concentration in olfactory bulb) worked out at 31200 ng/g.
Consider `O=C(O)CCC(CCCS)C(=O)O` (stereo not shown) [2-MPPA, 2-(3-mercaptopropyl)pentane-dioic acid], for which the “toxicity observed in primate studies” value in data set [5] is reported as “membranoproliferative glomerular nephritis; also recorded: immunological toxicities”.
As for `O=C(O)CC[C@@H](CP(=O)(O)O)C(=O)O` [R-2-PMPA], in data set [6], the concentration in cerebellum is 1.78 µg/g, the concentration in cortex was 10.1 µg/g and the “concentration in olfactory bulb” value turned out to be 19.3 µg/g.
Regarding `O=C(O)CC[C@H](CP(=O)(O)O)C(=O)O` [S-2-PMPA], in data set [6], the concentration in cerebellum was determined as 2.51 µg/g, the concentration in cortex was 10.4 µg/g and the “concentration in olfactory bulb” value amounted to 28.5 µg/g.
Regarding “N-[N-[(S)-1,3-dicarboxypropyl]carbamoyl]-L-cysteine [DCMC]”, in data set [7], the IC50 is 3.1 nM. In data set [4], the concentration in cerebellum amounted to 0.20 µg/g, the concentration in cortex is 2.03 µg/g and the “concentration in olfactory bulb” value worked out at 2.12 µg/g.
